Assay results: article PMC4010398, “A Phase I Clinical Trial of Systemically Delivered NEMO Binding Domain Peptide in Dogs with Spontaneous Activated B-Cell like Diffuse Large B-Cell Lymphoma” (PLoS ONE, 2014)
Entries after “also recorded” stand apart in the source; their conditions may differ.

Experiments:
[1] = test system: dogs with spontaneous ABC-like DLBCL; experiment: Phase I 3+3 dose escalation: adverse events and toxicity (VCOG-CTCAE); type: in vivo, dog
Text: The clinical trial protocol was fully approved by the University of Pennsylvania's Institutional Animal Care and Use Committee (Privately Owned Animal Protocol number: 803765). Only dogs with full written informed owner consent were eligible for enrollment. […] The histopathological diagnosis of DLBCL and cytological confirmation of large B cell lymphoma were made by board certified veterinary pathologists (M.G., and A.D., see acknowledgements) and by a board certified clinical pathologist (R.P.) respectively. Only dogs with DLBCL and constitutive NF-κB activity within their malignant lymph nodes as determined by the presence of phospho-IKK, phospho-IκBα and phospho-p65 were eligible to receive NBD peptide.
(§1) Tumor burden was calculated by measuring three dimensions (length, width and height) for each malignant lymph node. The mass of each node was calculated as previously described and the sum of measured lymph node mass was considered as total tumor mass. Response to NBD peptide was evaluated according to the Veterinary Cooperative Oncology Group criteria for assessment of response in peripheral nodal lymphoma, adapted for use in dogs from the published RECIST criteria. The Veterinary Cooperative Oncology Group Common Terminology for Adverse Events, version 1.0 was used to grade adverse events.

[2] = test system: constitutive canonical NF-κB signaling (phospho-IKKα/β:IKKβ); experiment: Immunoblot and densitometry of phospho-IKK in malignant lymph node biopsies, pre and 24 h post peptide; type: in vivo, dog; details: malignant lymph node biopsy 24 hours after single 1 h i.v. infusion, 0.5-2 mg/kg, vs pre-treatment; paired samples from ten of eleven dogs
Method: Lymph node biopsy samples were mechanically dissociated in RPMI and red blood cells were removed using ACK lysis buffer (Gibco) according to manufacturer's instructions. Cells were lysed in 50 mM Tris-HCL containing 1% NP-40, 150 mM NaCl, 2.5 mM EDTA, 5% glycerol, a 1∶50 dilution of Protease Inhibitor Cocktail and 1∶50 dilutions of Phosphatase Inhibitor Cocktails 2 and 3 (Sigma-Aldrich, Saint Louis, MO). Samples were centrifuged and protein concentrations were determined by micro BCA assay (Thermo Scientific, Rockford, IL). Proteins from whole cell extracts were separated by SDS-PAGE (10%) followed by transfer to PVDF membrane. Membranes were probed with polyclonal rabbit anti-human antibodies against phospho-IKKα/β (16A6), IKKβ (L570), phospho-IκBα (14D4), mouse anti-human IκBα (L35A5) and β-actin (4967) (Cell Signaling, Danvers, MA). An HRP-conjugated donkey anti-rabbit or anti-mouse IgG was used as the secondary detection antibody (Amersham, Piscataway, NJ). Blots were developed using ECL Plus (Amersham, Piscataway, NJ). Densitometry was performed using ImageJ software and integrated density values for each band were obtained using the Analyze Particles function.

[3] = Hematological and biochemical parameters before and one week after treatment; type: in vivo, dog
Method: In this phase I dose escalation clinical trial, both treatment-naïve and relapsed dogs were enrolled. NBD peptide was administered according to a standard 3+3 trial design. […] Peptide was reconstituted to 50 mM in sterile DMSO and diluted in 20 mls of lactated Ringers solution immediately prior to intravenous administration at a constant rate of 20 ml/hr. […] Following the post-treatment biopsy, dogs received induction or rescue chemotherapy as determined by their primary attending veterinary oncologist and a short course of prophylactic antibiotics (amoxicillin). All dogs received a follow-up full clinical examination, CBC, CS and urinalysis one week post NBD peptide.

[4] = test system: Ki67; experiment: Ki67 immunohistochemistry of malignant lymph node biopsies; type: in vivo, dog; details: 24 hours post peptide vs pre; 10 high power fields
Method: (§2) Immunohistochemical analysis was performed on 5 micron sections of formalin fixed paraffin embedded lymph node tissue from dogs with spontaneous DLBCL using a DAKO automatic universal staining system. Sections were heated in a 60°C oven for 1 hour, depararaffinized in PRO PAR clearant and rehydrated in progressively decreasing grades of ethanol. Antigen retrieval was performed by boiling sections in sodium citrate buffer, pH ∼9.0 for 15 minutes. Endogenous peroxidase was blocked with 3% hydrogen peroxide. For Ki67 staining, a 1∶50 dilution of a monoclonal mouse anti-human antibody (Clone MIB-1, DAKO) was used and immunodetection was performed using a biotinylated goat anti-rabbit/anti-mouse immunoglobulin and SA-HRP (LSAB2 kit, DAKO, Carpinteria, CA). For IRF-4 staining, a 1∶200 dilution of a polyclonal mouse anti human antibody (DAKO, M7259) was used and immunodetection was performed using a peroxidase polymer conjugated anti-mouse secondary antibody system (ImmPRESS Anti-mouse Ig peroxidase polymer detection kit). In all cases, antibody binding was detected using 3,3′-diaminobenzidine solution and tissues were counterstained with hematoxylin. Slides were viewed using a Nikon E600 infinity corrected upright microscope. […] Apoptotic cells were detected using the cell death detection kit (Roche, Indianapolis, IA) following the manufacturer's instructions. […]

[5] = test system: Cyclin D1; experiment: qRT-PCR of Cyclin D1 in malignant lymph node biopsies; type: in vivo, dog; details: 24 hour post-peptide biopsy normalized to pre-treatment; β-actin control, triplicate
Method: (§3) Lymph node biopsies were immediately placed in RNAlater (Ambion, Austin, TX) and stored at –80°C prior to RNA extraction. Total RNA extraction was performed using the RNeasy Mini Kit (Qiagen, Valencia, CA). Reverse transcription was performed using random hexamers and Superscript II reverse transcriptase (Invitrogen Corp., Carlsbad. CA, USA) according to the manufacturer's instructions. Primer sequences for canine A1, A20, Bcl-XL, c-FLIP, Cyclin D1, Bcl-2, XIAP and β-actin have been previously described, [35]. Primers were synthesized by Invitrogen Corp. Real-time PCR assays were performed using SYBR Green (Fermentas, Glen Burnie, Maryland). Samples were run in triplicate using standard conditions on an ABI 7500 sequence detector (Applied Biosystems, Carlsbad, CA) and data were analyzed using β-actin as an endogenous control. Dissociation curves were performed after each experiment to confirm the specificity of product amplification. Statistical analysis was performed using a two-tailed Student's ‘t’ test where statistical significance = p<0.05.

[6] = test system: NF-κB target genes (A1, c-FLIP, XIAP, Bcl-XL, Bcl-2 and A20); experiment: qRT-PCR of pro-survival NF-κB target genes in malignant lymph nodes; type: in vivo, dog
Method: as §3

[7] = test system: malignant lymph nodes; experiment: TUNEL staining of malignant lymph node biopsies; type: in vivo, dog; details: 24 hours post peptide vs pre; tissue available from 9 dogs
Method: as §2

[8] = test system: malignant lymph nodes; experiment: Measureable tumor mass before and 24 h after peptide; type: in vivo, dog; details: 24 hours after NBD peptide; measurements available for 10 treated dogs
Method: as §1

[9] = test system: dogs with spontaneous ABC-like DLBCL; experiment: Clinical response and survival after NBD peptide plus chemotherapy; type: in vivo, dog
Method: as §1

[10] = test system: malignant node; details: local, intranodal administration; cited from earlier work
Text: (§4) Pet dogs that develop Non-Hodgkins Lymphoma (NHL) are recognized as a clinically relevant, spontaneous large animal model of the human disease, [27]–[31]. […] Furthermore, tissue microarrays from lymphomatous canine tissue confirmed the presence of constitutive NF-κB activity and pharmacological inhibition of IKK leads to in ...

[11] = test system: primary malignant canine B cells; details: in vitro, cited from earlier work
Text: as §4

[12] = test system: rats, mice and piglets; details: doses ranging from 0.75 mg/kg to 20 mg/kg; cited from earlier work
Text: In this study, as a consequence of dru ...

[13] = Plasma pharmacokinetics after intravenous infusion (mass spectrometry)
Method: In this phase I dose escalation clinical trial, both treatment-naïve and relapsed dogs were enrolled. NBD peptide was administered according to a standard 3+3 trial design. The dose endpoint was the dose at which canonical NF-κB signaling was inhibited within malignant lymph nodes. Peptide was reconstituted to 50 mM in sterile DMSO and diluted in 20 mls of lactated Ringers solution immediately prior to intravenous administration at a constant rate of 20 ml/hr. Twenty-four hours post NBD peptide administration, excisional or Tru-cut biopsies of a peripheral malignant lymph node were taken for Western blot, qRT-PCR and histopathological analysis.
EDTA anti-coagulated blood samples were taken at 0, 30, 60, 90, 120, 240, 360 mins and 24 hours post infusion. Plasma was separated by centrifugation and stored at −80°C prior to pharmacokinetic analysis. Mass spectrometer analysis of NBD peptide in plasma samples was performed by Frontage Laboratories, Exton, PA and pharmacokinetic (PK) parameters were determined using WinNonlin v5.2 software. The lower limit of quantification (LLOQ) was set to 10 ng/ml however, in some instances the LLOQ was changed to 20 ng/ml because of potential interference in the samples.

[14] = one week after NBD peptide plus induction or rescue chemotherapy

For “NEMO Binding Domain (NBD) peptide [NBD peptide]”, the “acute or chronic toxicities at any dose evaluated” value ([1]; 0.5-2.0 mg/kg single i.v. dose, clinical, hematological and biochemical parameters) was “no significant acute or chronic toxicities”, the “safety of intravenous administration” value ([1]; <2 mg/kg i.v.) was “safe” and the “dogs that became drowsy and developed moderate tachycardia and hypertension during infusion” value ([1]; Group 1, 0.5 mg/kg i.v., three dogs, no premedication, mild, transient, resolved when infusion was discontinued) was “two”. The “additional dogs with transient hypertension” value ([1]; Group 2, 1 mg/kg i.v., premedicated with ondansetron and diphenhydramine) was “one”, the “maximum tolerated dose of NBD peptide in dogs” value ([1]; doses 0.5-2.0 mg/kg i.v.) was “not reached” and the “dogs showing reductions in the phosphorylation status of IKK (pIKK:IKK)” value [2] was 6/10 and Six out of ten. The “dogs with significant but asymptomatic increases in liver values (ALT, ALKP, AST and GGT) one week later” value ([3]; Group 2, 1 mg/kg, dog also received L'asparaginase 24 hrs after peptide, values returned to baseline two weeks later) was “One”, the “dogs with elevated ALKP prior to peptide that showed further increases in ALKP post treatment” value ([3]; all previously treated for relapsed lymphoma, one week after NBD peptide plus chemotherapy) was 4/11 and the “dogs with an increase in platelet count” value [3, 14] was 8/11. The “dogs with mild decreases in lymphocyte counts” value [3, 14] was 9/11, the “dogs with mild decreases in hematocrit” value ([3]; one week after NBD peptide plus induction or rescue chemotherapy, most values within the normal range) was 9/11 and the “dogs with a statistically significant reduction in the number of Ki67+ cells” value [4] was “Four”. For the same substance, the “dogs with a decrease in the expression of Cyclin D1” value [5] was “Eight out of eleven”, the “inhibition of NF-κB target genes in the one dog that received 2 mg/kg (dog 11)” value ([6]; 2 mg/kg i.v., 24 hours after peptide, compared with the other dogs) was “most significant inhibition” and the “dogs in which the expression of 3 or more target genes was reduced” value ([6]; 24 hours after NBD peptide, six genes evaluated) was 6 out of 11. The “dogs with a trend towards an increase in apoptosis (TUNEL)” value [7] was “Five”, the “dogs with greater than 20% reduction in measureable tumor mass” value [8] was “Five out of 10” and the “dogs that achieved clinical remission (CR)” value ([9]; NBD peptide plus chemotherapy, eleven dogs, including 5 dogs treated at first relapse) was “Seven”. The “dogs that survived greater than 16 months” value ([9]; after peptide administration and chemotherapy) was “three”, the “effect on tumor burden” value [10] was “decreases tumor burden” and the “effect on cell survival” value ([11]; NBD peptide fused to AntP) was “rapid apoptosis”. The “effect on phosphorylation of IKK and IκBα” value ([11]; NBD peptide fused to the cell penetrating Antennapedia peptide (AntP)) was “inhibits phosphorylation”, the “tolerability of systemic administration” value [12] was “well tolerated” and the “plasma concentrations of NBD peptide at the doses studied” value ([13]; 0.5-2.0 mg/kg i.v.) was “very low”. For the same substance, the “NBD peptide in plasma after 60 mins” value ([13]; any dog, sampling up to 24 hours post infusion, LLOQ 10 or 20 ng/ml) was “not detected; also recorded: undetectable”.
